PubChem BioAssay AID602135 (Sanford-Burnham Center for Chemical Genomics, 2011)
Calls of active or inactive are those of the source.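 The calls were made as follows: active = mean IC50 under 10 µM against uracil DNA glycosylase, used as a counter screen; inactive = the rest.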

What follows are compounds tested against Uracil-DNA glycosylase (Escherichia coli (strain K12)) (UniProt P12295) (assay: uracil-DNA glycosylase cleavage inhibition – biochemical, UDG counterscreen, counter-screen for APOBEC3G deaminase inhibitor project, SAR follow-up (AID 602135)). Conditions: FAM/TAMRA oligo fluorescence.
Chain of Uracil-DNA glycosylase (Escherichia coli (strain K12)) (P12295 whole entry, looked up): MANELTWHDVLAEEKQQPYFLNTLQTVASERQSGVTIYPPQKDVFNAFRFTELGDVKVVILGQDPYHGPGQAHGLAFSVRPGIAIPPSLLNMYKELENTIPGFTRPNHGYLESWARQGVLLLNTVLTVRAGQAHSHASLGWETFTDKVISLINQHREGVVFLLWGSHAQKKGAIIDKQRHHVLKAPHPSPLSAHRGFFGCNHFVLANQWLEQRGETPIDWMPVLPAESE
`CCOC(=O)c1ccc2c(c1)N(C)C(=O)c1ccccc1S2` was tested, and the IC50 was > 99 µM (inactive). In the case of `S=c1[nH]nc(NCCc2ccccc2)s1`, the IC50 is reported as > 99 µM (inactive). With `O=C(NCc1ccc2c(c1)OCO2)c1cc2ncc(Br)cn2n1` the IC50 was > 99 µM (inactive). In the case of `Cc1ccc(C=Nn2c(-c3ccco3)n[nH]c2=S)s1`, the IC50 is reported as > 99 µM (inactive). `CC1(C)Oc2ccc3ccc(=O)oc3c2/C(=C/NCCO)C1=O` was tested, and the IC50 was > 99 µM (inactive). For `O=C(NCc1ccc2c(c1)OCO2)c1nn2cccnc2c1Cl`, the IC50 was > 99 µM (inactive). For `CCCCn1c(=O)c2ccccc2n2c(=S)[nH]nc12`, the IC50 was > 99 µM (inactive). In the case of `Cc1ccc2c(c1C)NC(C(=O)O)C1CC=CC21` (stereo not given), the IC50 is reported as > 99 µM (inactive). With `Cc1ccc2[nH]cc(/C=C/c3cc[n+](C)cc3)c2c1` the IC50 was > 99 µM (inactive). `Cn1nc([N+](=O)[O-])nc1S(C)(=O)=O` was tested, and the IC50 was > 99 µM (inactive). With `CCCCCn1c(=O)c2ccccc2n2c(=S)[nH]nc12` the IC50 was > 99 µM (inactive). For `Cc1ccc(-c2csc3n[nH]c(=S)n23)cc1`, the IC50 was > 99 µM (inactive). In the case of `S=c1[nH]nc2c3c4c(sc3ncn12)CCCC4`, the IC50 is reported as > 99 µM (inactive). `CCn1ncc(-c2ccnc3cc(C(=O)O)nn23)c1C` was tested, and the IC50 was > 99 µM (inactive). For `CCC(=O)Nc1cccc(-c2nnc(SCC(=O)NCc3ccco3)n2C)c1`, the IC50 was > 99 µM (inactive). `COc1cc(C=Nn2c(-c3n[nH]c4c3CCC4)n[nH]c2=S)ccc1O` was tested, and the IC50 was > 99 µM (inactive). `Cc1ccc[n+](CC(=O)Nc2cc(C(F)(F)F)ccc2N2CCOCC2)c1` was tested, and the IC50 was > 99 µM (inactive). In the case of `Cc1ccc(C)n1Cc1ccc(C(=O)O)cc1`, the IC50 is reported as > 99 µM (inactive). In the case of `COc1ccc(-c2nc(=S)[nH][nH]2)cc1`, the IC50 is reported as > 99 µM (inactive). For `C[n+]1cccc(C(=O)Nc2ccccc2)c1`, the IC50 was > 99 µM (inactive). In the case of `CC(=O)c1ccc2c(c1)C1C=CCC1C(C(=O)O)N2` (stereo not given), the IC50 is reported as > 99 µM (inactive). For `CC(C(=O)O)N1C(=O)/C(=C/C=C/c2ccco2)SC1=S` (stereo not given), the IC50 was > 99 µM (inactive). `Nn1c(-c2cccc(Br)c2)n[nH]c1=S` was tested, and the IC50 was > 99 µM (inactive). In the case of `CC(C)(C)NC(=O)CSc1nc2ccc(NC(=O)CSc3nnc(N)s3)cc2s1`, the IC50 is reported as > 99 µM (inactive). In the case of `O=C1NC(=S)NC(=O)C1=Cc1ccc2c(c1)CCN2CCCCl`, the IC50 is reported as > 99 µM (inactive).
